Tests used:
Assay in all cases: GR value, 72 h; higher = faster growth (1 = untreated, <0 = killing);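 further: breast cancer and non-malignant breast epithelial lines, nine half-log doses, viable cells counted by Hoechst and LIVE/DEAD dye imaging versus time-zero plates and DMSO controls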
YKL-5-124 = compound: C=CC(=O)Nc1ccc(C(=O)Nc2[nH]nc3c2CN(C(=O)N[C@H](CN(C)C)c2ccccc2)C3(C)C)cc1 [YKL-5-124]
[1] = compound: CCc1cnn2c(NCc3ccc[n+]([O-])c3)cc(N3CCCC[C@H]3CCO)nc12
LEE011/Ribociclib = compound: CN(C)C(=O)c1cc2cnc(Nc3ccc(N4CCNCC4)cn3)nc2n1C1CCCC1 [LEE011/Ribociclib]
BSJ-03-123 = compound: CC(=O)c1c(C)c2cnc(Nc3ccc(N4CCN(CCOCCOCCOCCNC(=O)COc5cccc6c5C(=O)N(C5CCC(=O)NC5=O)C6=O)CC4)cn3)nc2n(C2CCCC2)c1=O [BSJ-03-123]
THZ1 = compound: CN(C)C/C=C/C(=O)Nc1ccc(C(=O)Nc2cccc(Nc3ncc(Cl)c(-c4c[nH]c5ccccc45)n3)c2)cc1 [THZ1]

BT549
GR value (YKL-5-124; 0.001 µM): 0.747 GR | GR value (YKL-5-124; 0.003162 µM): 0.497 GR | GR value (YKL-5-124; 0.01 µM): 0.301 GR | GR value (YKL-5-124; 0.03162 µM): 0.125 GR | GR value (YKL-5-124; 0.1 µM): 0.0904 GR | GR value (YKL-5-124; 0.3162 µM): 0.0362 GR | GR value (YKL-5-124; 1 µM): -0.0144 GR | GR value (YKL-5-124; 3.162 µM): -0.0731 GR | GR value (YKL-5-124; 10 µM): -0.58 GR | GR value ([1]; 0.0001 µM): 0.971 GR | GR value ([1]; 0.0003162 µM): 1.02 GR | GR value ([1]; 0.001 µM): 1 GR | GR value ([1]; 0.003162 µM): 0.996 GR | GR value ([1]; 0.01 µM): 0.698 GR | GR value ([1]; 0.03162 µM): -0.221 GR | GR value ([1]; 0.1 µM): -0.261 GR | GR value ([1]; 0.3162 µM): -0.275 GR | GR value ([1]; 1 µM): -0.293 GR | GR value (LEE011/Ribociclib; 0.001 µM): 0.972 GR | GR value (LEE011/Ribociclib; 0.003162 µM): 1.06 GR | GR value (LEE011/Ribociclib; 0.01 µM): 0.919 GR | GR value (LEE011/Ribociclib; 0.03162 µM): 0.997 GR | GR value (LEE011/Ribociclib; 0.1 µM): 1 GR | GR value (LEE011/Ribociclib; 0.3162 µM): 0.995 GR | GR value (LEE011/Ribociclib; 1 µM): 1 GR | GR value (LEE011/Ribociclib; 3.162 µM): 0.966 GR | GR value (LEE011/Ribociclib; 10 µM): 0.992 GR | GR value (BSJ-03-123; 0.001 µM): 0.998 GR | GR value (BSJ-03-123; 0.003162 µM): 0.999 GR | GR value (BSJ-03-123; 0.01 µM): 1 GR | GR value (BSJ-03-123; 0.03162 µM): 0.988 GR | GR value (BSJ-03-123; 0.1 µM): 0.998 GR | GR value (BSJ-03-123; 0.3162 µM): 0.976 GR | GR value (BSJ-03-123; 1 µM): 0.938 GR | GR value (BSJ-03-123; 3.162 µM): 0.88 GR | GR value (BSJ-03-123; 10 µM): 0.0237 GR | GR value (THZ1; 0.0001 µM): 1.06 GR | GR value (THZ1; 0.0003162 µM): 1.01 GR | GR value (THZ1; 0.001 µM): 1.02 GR | GR value (THZ1; 0.003162 µM): 0.979 GR | GR value (THZ1; 0.01 µM): 0.909 GR

— the supplement of paper PMC9663587
